Reference: patent publication US20070009566A1, “Method and apparatus for treating bacterial infections in devices” (priority 2005, published 2007)
Converted amounts (≈) assume the structure as drawn. Like-named read-outs stand apart in the source and are kept apart here. Where no end group is shown, it is not given here.

Experiments:
[1] = tested on: S. aureus strain Smith diffuse; assay: Rat central venous catheter (CVC)-associated infection model, lock technique; conditions: day seven; for Quantitative blood culture / Quantitative catheters/venous tissues culture: mean ± S.D.; for Antimicrobial activity in quantitative peripheral blood cultures (in words): at concentration of MBC for adherent cells, compared with untreated control
[2] = tested on: S. aureus strain Smith diffuse (SD), planktonic organisms; assay: Susceptibility testing by classical method (microbroth dilution, MIC/MBC, planktonic organisms); assay type: cell-based; conditions: 10 μg of RIP pre-treatment (in 10 μL MH broth/well), 30 minutes
Description: (§1) Organisms: The inventors chose the S. aureus strain Smith diffuse (SD).
National Committee for Clinical Laboratory Standards, Fifth Edition, Approved Standard M7-A5, Wayne, Pa. (2001).

[3] = tested on: S. aureus strain Smith diffuse (SD), adherent organisms
[4] = tested on: S. aureus strain Smith diffuse (SD), adherent organisms; assay: microbe, parasite or virus in culture; conditions: Staphylococcus aureus
[5] = tested on: S. aureus strain Smith diffuse (SD) biofilm; assay: Adherent biofilm formation (crystal violet, OD 570 nm); assay type: cell-based; conditions: with addition of RIP into each well; data not shown
Description: as §1
Adherent biofilm formation for susceptibility testing: To develop a biofilm, 50 μL of Triptic Soy broth (“TSB”) containing 10^6 CFU/mL of bacteria was added under aseptic conditions to each well of a tissue culture-treated polystyrene 96-well plate containing 150 μL of TSB-2% glucose. […] To evaluate the formation of adherent biofilm, the remaining attached bacteria were fixed with 0.2 mL of 99% methanol per well, and after 15 min, plates were emptied and left to dry. […] Stepanovic et al., J Microbiol Methods 40:175-179 (2000); and Christensen et al., J Clin Microbiol 22:996-1006 (1985). The plates were air dried. The dye bound to the adherent cells was solubilized with 0.2 mL of 33% (v/v) glacial acetic acid per well.

[6] = antibiotic lock 1,024 μg/ml, 1 hour dwell
[7] = 10 μg of RIP pre-treatment (in 10 μL MH broth/well), 30 minutes
[8] = read-out: MBC, adherent organisms, 10 μg of RIP pre-treatment (in 10 μL MH broth/well), 30 minutes
[9] = read-out: MBC, adherent organisms, without RIP pre-treatment
[10] = read-out: MIC, adherent organisms, 10 μg of RIP pre-treatment (in 10 μL MH broth/well), 30 minutes
[11] = read-out: MIC, adherent organisms, without RIP pre-treatment
[12] = antibiotic lock 8.00 μg/ml (MBC for adherent cells), 1 hour dwell

Compound | Quantitative blood culture [1, 6] | Quantitative catheters/venous tissues culture [1, 6] | Antimicrobial activity in quantitative peripheral blood cultures (in words) [1] | MBC, planktonic organisms [2] [µg/mL] | MIC, planktonic organisms [2] [µg/mL] | MIC, adherent organisms [3, 7] [µg/mL] | MIC, adherent organisms ([3]; without RIP pre-treatment) [µg/mL] | MBC [4, 8] [µg/mL] | MBC [4, 9] [µg/mL] | MIC [4, 10] [µg/mL] | MIC [4, 11] [µg/mL] | Quantitative blood culture [1, 12] | Quantitative catheters/venous tissues culture [1, 12] | Slime production (photometrical method) [5] | Quantitative blood culture ([1]; RIP-impregnated CVC alone) | Quantitative catheters/venous tissues culture ([1]; RIP-impregnated CVC alone)
O=C(O)c1cn(C2CC2)c2cc(N3CCNCC3)c(F)cc2c1=O [Ciprofloxacin, ciprofloxacin] | 6.6 × 10^1 ± 1.4 × 10^1bc CFU/ml | 7.4 × 10^5 ± 2.1 × 10^5bc CFU/ml | weak antimicrobial activity | – | – | – | – | – | – | – | – | – | – | – | – | –
C[C@@H](O)[C@H]1C(=O)N2C(C(=O)O)=C(SCCN=CN)C[C@H]12 [Imipenem, imipenem] | 5.7 × 10^1 ± 1.2 × 10^1bc CFU/ml | 6.0 × 10^5 ± 1.9 × 10^5bc CFU/ml | – | 1.00 (≈ 3.34 µM) | 0.50 (≈ 1.67 µM) | 0.50 (≈ 1.67 µM) | 1.00 (≈ 3.34 µM) | 2 (≈ 6.68 µM) | 8 (≈ 26.7 µM) | 0.5 (≈ 1.67 µM) | 1 (≈ 3.34 µM) | 5.8 × 10^3 ± 1.2 × 10^3 CFU/ml | 6.9 × 10^6 ± 2.1 × 10^6 CFU/ml | – | – | –
CN[C@H](CC(C)C)C(=O)N[C@H]1C(=O)N[C@@H](CC(N)=O)C(=O)N[C@H]2C(=O)N[C@H]3C(=O)N[C@H](C(=O)N[C@H](C(=O)O)c4cc(O)cc(O)c4-c4cc3ccc4O)[C@H](O)c3ccc(c(Cl)c3)Oc3cc2cc(c3O[C@@H]2O[C@H](CO)[C@@H](O)[C@H](O)[C@H]2O[C@H]2C[C@](C)(N)[C@H](O)[C@H](C)O2)Oc2ccc(cc2Cl)[C@H]1O [Vancomycin] | 5.3 × 10^1 ± 1.1 × 10^1bc CFU/ml | 5.4 × 10^5 ± 1.6 × 10^5bc CFU/ml | weak antimicrobial activity | 2.00 (≈ 1.38 µM) | 1.00 (≈ 0.69 µM) | 1.00 (≈ 0.69 µM) | 2.00 (≈ 1.38 µM) | 2 (≈ 1.38 µM) | 16 (≈ 11 µM) | 1 (≈ 0.69 µM) | 2 (≈ 1.38 µM) | – | – | – | – | –
YSPWTNF-NH2 [RIP, YSPWTNF-NH2] | – | – | – | – | – | – | – | – | – | – | – | – | – | much lower | 3.4 × 10^1 ± 0.8 × 10^1b CFU/ml | 1.4 × 10^3 ± 0.3 × 10^3b CFU/ml
